Assay results reported in US8927709B2, “Hepatitis C virus inhibitors” (Enanta Pharmaceuticals, Inc., priority 2009, dated 2015).

Tested on: HCV 1b genotype replicon
Experiment: HCV genotype-1b replicon assay (qRT-PCR or luciferase)
Type: cell-based
Settings: Hepatitis C virus, HCV 1b replicon cell lines (SGR 11-7 or Huh-luc/neo-ET), a/b entries tested as mixture of the two compounds, read-out: Genotype-1b replicon EC50 Range
Text: HCV replicon cell lines (kindly provided by R. Bartenschlager) isolated from colonies as described by Lohman et. al. (Lohman et al. (1999) Science 285: 110-113, expressly incorporated by reference in its entirety) and used for all experiments. The HCV replicon has the nucleic acid sequence set forth in EMBL Accession No.: AJ242651, the coding sequence of which is from nucleotides 1801 to 8406.
The coding sequence of the published HCV replicon was synthesized and subsequently assembled in a modified plasmid pBR322 (Promega, Madison, Wis.) using standard molecular biology techniques. […]
EC50 values of single agent compounds and combinations were determined by HCV RNA detection using quantitative RT-PCR, according to the manufacturer's instructions, with a TAQMAN® One-Step RT-PCR Master Mix Reagents Kit (Cat# AB 4309169, Applied Biosystems) on an ABI Model 7500 thermocycler. The TaqMan primers used for detecting and quantifying HCV RNA were obtained from Integrated DNA Technologies. HCV RNA was normalized to GAPDH RNA levels in drug-treated cells, which was detected and quantified using the Human GAPDH Endogenous Control Mix (Applied Biosystems, AB 4310884E). […] Chemical agent cytotoxicity was evaluated using an MTS assay according to the manufacturer's directions (Promega). […]

COC(=O)N[C@H](C(=O)N1CCC(c2nc3cc(-c4ccc(-c5c[nH]c([C@@H]6CCCN6C(=O)[C@@H](NC(=O)OC)C(C)C)n5)cc4)ccc3[nH]2)C1)C(C)C (some centres unmarked) [Example 343]
EC50: 1 to 10 nM

COC(=O)N[C@H](C(=O)N1CCC(c2nc(-c3ccc(-c4ccc(-c5c[nH]c([C@@H]6CCCN6C(=O)[C@@H](NC(=O)OC)C(C)C)n5)cc4)cc3)c[nH]2)C1)C(C)C (some centres unmarked) [Example 345]
EC50: < 1 nM
